One compound from patent US20260217668A1, “CRYSTALLINE FORMS OF A LPA1 ANTAGONIST” (Bristol-Myers Squibb Company, priority 2022, published 2026) can be followed below.

The structures appear in SMILES notation.

This series can be described thus: Moisture sorption isotherms. It is filed as physicochemical. Conditions: moisture sorption at 25° C., 4 to 95% RH (FIG. 4). How it is done: Moisture sorption isotherms were collected in a TA Instrument VTI-SA+ Vapor Sorption Analyzer using approximately 270 mg of sample in a 250 μL ceramic pan. The sample was dried at 30° C. until the loss rate of 0.005 wt %/min was obtained for 10 minutes. The sample was tested at 25° C. and 4, 5, 15, 25, 35, 45, 50, 65, 75, 85, and 95% RH. Equilibration at each RH was reached when the rate of 0.01 wt %/min for 35 minutes was achieved or a maximum of 600 minutes.

Turning to `CCCN(C)C(=O)OCc1c(-c2ccc(O[C@H]3CCC[C@H](C(=O)O)C3)c(C)n2)nnn1C` [Form A], the hygroscopicity result is “non-hygroscopicity”.
